# Target: T1, human fatty acid synthase FASN (Homo sapiens, UniProt P49327)
# T1 construct: human recombinant full-length fatty acid synthase; made in house; host or cells: SF9 cells
# Assay: Biochemical activity testing of human fatty acid synthase FASN (NADPH fluorescence intensity enzyme assay)
# Details: @30 μM
# Text: • GST=Glutathione-S-transferase • FRET=Fluorescence resonance energy transfer • HTRF®=(homogenous time resolved fluorescence) • HEPES=4-(2-hydroxyethyl)-1-piperazine ethanesulfonic acid buffer • DTT=Dithiothreitol • BSA=bovine serum albumin • CHAPS=detergent; • CHAPS=3-[(3-cholamidopropyl)dimethylammonio]-1-propanesulfonate Biochemical Activity Testing of Human Fatty Acid Synthase FASN
# Fatty acid synthase FASN is a multifunctional enzyme with seven catalytic activities thereby synthesising long chain fatty acids especially palmitoyl-CoA in the presence of co-factor NADPH starting from the substrates acetyl-CoA and malonyl-CoA. The reductive synthesis is realized by the oxidation of NADPH to NADP. Since NADPH has a high fluorescence intensity quantum yield compared to NADP with excitation at 340 nm and emission at 460 nm, the reaction can be monitored via the decrease in fluorescence intensity. The biochemical FASN activity testing was performed as 384 well two-time-point kinetic fluorescence intensity assay format in Greiner low volume medium binding 384-well black microtiter plates in a total assay volume of 8 μl and was used for high throughput screen. In each well 3 μl 40 nM human recombinant full-length fatty acid synthase (produced in-house in SF9 cells) were dispensed in the following assay buffer: 50 mM potassium phosphate buffer pH 7.0, 0.005% (w/v) BSA, 2 mM Glutathione, 0.02% Tween-20. Then 2 μl of 200 μM NADPH in assay buffer were added, followed by the addition of the test compounds in 10 dilution concentrations starting with 30 μM (final concentration) to get a final DMSO content of 1% (v/v). The mixture was incubated for at least 15 min at room temperature. After the pre-incubation the enzymatic reaction was started by the addition of 2 μl substrate solution (80 μM acetyl-CoA, 240 μM malonyl-CoA). A first fluorescence intensity measurement (time point one) was performed with an Envision multimode reader (Perkin Elmer LAS Germany GmbH) at excitation wavelength 340 nm (lamp mode) and emission wavelength 460 nm. The reaction was incubated for 30 minutes at room temperature. After this the fluorescence intensity was measured again in the Envision using the same parameters as described above (second time point measurement). The data were analysed by subtracting the first time point measurement value from the second time point measurement value (after the enzymatic reaction). The differences of the emission signals were determined. These reflect directly the conversion rate of NADPH. The full value used was the inhibitor-free reaction. A pharmacological zero value was used like GSK837149A (Sigma-Aldrich) in a final concentration of 5-10 μM. The inhibitory values (IC50) were determined using either the program Symyx Assay Explorer® or Condosseo® from GeneData.
# T1 sequence (P49327 whole entry): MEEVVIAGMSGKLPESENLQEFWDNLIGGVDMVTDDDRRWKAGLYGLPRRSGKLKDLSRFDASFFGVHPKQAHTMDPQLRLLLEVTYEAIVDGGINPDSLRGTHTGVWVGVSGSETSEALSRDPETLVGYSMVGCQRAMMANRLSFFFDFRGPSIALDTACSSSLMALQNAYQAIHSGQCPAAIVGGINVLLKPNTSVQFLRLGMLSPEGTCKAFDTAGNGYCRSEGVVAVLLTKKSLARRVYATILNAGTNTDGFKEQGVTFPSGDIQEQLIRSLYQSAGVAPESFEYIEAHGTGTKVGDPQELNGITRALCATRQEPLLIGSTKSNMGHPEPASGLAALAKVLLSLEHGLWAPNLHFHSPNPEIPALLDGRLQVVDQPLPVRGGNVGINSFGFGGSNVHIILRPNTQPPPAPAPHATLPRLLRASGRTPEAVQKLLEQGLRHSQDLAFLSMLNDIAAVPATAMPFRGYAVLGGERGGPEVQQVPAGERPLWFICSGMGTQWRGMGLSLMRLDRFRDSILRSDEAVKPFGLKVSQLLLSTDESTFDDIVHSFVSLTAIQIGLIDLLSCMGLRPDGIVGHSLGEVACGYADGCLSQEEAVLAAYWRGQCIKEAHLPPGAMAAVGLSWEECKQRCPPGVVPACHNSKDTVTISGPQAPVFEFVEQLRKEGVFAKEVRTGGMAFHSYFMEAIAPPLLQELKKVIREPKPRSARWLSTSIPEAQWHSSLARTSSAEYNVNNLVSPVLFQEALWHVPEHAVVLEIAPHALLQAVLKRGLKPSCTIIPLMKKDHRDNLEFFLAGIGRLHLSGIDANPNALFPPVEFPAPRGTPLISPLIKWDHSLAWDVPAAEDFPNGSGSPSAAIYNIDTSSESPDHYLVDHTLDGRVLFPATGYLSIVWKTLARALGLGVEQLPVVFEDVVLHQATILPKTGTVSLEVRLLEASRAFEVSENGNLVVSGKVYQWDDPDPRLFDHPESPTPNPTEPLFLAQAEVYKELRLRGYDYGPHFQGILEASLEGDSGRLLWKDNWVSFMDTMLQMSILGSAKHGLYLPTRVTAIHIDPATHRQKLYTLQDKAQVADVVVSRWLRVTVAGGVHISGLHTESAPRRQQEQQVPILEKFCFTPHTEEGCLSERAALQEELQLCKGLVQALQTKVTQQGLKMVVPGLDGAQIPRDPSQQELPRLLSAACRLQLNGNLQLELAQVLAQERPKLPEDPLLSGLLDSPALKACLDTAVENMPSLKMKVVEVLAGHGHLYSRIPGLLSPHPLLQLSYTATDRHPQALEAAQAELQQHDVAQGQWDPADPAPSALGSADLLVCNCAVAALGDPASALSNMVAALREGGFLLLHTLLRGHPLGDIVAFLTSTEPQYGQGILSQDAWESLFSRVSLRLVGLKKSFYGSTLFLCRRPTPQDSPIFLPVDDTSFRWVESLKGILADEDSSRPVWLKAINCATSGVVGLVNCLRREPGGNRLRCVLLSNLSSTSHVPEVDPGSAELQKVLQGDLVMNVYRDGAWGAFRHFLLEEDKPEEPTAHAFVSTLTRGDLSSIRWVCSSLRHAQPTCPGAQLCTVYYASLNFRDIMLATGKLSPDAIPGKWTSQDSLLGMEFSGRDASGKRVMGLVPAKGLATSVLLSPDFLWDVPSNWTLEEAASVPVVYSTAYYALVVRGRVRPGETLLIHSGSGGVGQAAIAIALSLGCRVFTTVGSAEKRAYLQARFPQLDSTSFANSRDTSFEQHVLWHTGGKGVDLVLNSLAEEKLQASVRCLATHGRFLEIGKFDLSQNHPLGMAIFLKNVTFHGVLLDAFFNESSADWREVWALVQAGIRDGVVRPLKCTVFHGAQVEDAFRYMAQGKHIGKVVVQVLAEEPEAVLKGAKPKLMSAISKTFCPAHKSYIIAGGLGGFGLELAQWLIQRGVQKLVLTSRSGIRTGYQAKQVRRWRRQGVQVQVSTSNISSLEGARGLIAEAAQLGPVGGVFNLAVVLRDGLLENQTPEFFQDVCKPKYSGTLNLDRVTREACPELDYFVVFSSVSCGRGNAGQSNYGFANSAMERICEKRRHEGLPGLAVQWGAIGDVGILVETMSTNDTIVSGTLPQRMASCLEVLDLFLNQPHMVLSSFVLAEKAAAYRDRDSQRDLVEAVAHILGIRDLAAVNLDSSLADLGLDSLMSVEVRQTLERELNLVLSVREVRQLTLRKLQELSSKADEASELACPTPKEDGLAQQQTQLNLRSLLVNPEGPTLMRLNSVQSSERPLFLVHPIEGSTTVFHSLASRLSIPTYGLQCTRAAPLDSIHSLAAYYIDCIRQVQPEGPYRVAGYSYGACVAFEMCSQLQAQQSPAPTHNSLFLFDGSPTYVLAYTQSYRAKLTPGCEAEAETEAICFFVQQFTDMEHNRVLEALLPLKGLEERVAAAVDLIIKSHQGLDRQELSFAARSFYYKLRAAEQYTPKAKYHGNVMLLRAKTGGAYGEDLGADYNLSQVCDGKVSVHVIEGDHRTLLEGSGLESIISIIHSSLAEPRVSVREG
structure (smiles),measurement,value
"Cc1noc([C@H]2CC[C@@H](N(C)C(=O)c3ccc(-c4nc5ccccc5o4)cc3)C2)n1 [Compound A28, 4-benzoxazol-2-yl-N-methyl-N-[(1 R,3S)-3-(3-methyl-[1,2,4]oxadiazol-5-yl)-cyclopentyl]-benzamide]",IC50 FASN (enzyme assay): % at single concentration,−38% @30 μM

# — US9790216B2, “3-substituted cyclopentylamine derivatives” (Merck Patent GmbH, priority 2013, dated 2017)
